Laboratory results reported in ChEMBL document CHEMBL5512632, “Unlocking the potential of 1,4-naphthoquinones: A comprehensive review of their anticancer properties” (Eur J Med Chem, 2024).

Assays:
[1] = system: U-87 MG; test: Cytotoxicity against human U87 cells incubated for 48 hrs by MTT reagent based spectrophotometric analysis; type: functional, cell-based, U-87MG ATCC
[2] = Cytotoxicity against human OC3-IV2 cells incubated for 48 hrs by MTT reagent based spectrophotometric analysis; type: functional, cell-based; conditions: OC3-IV2, 48 h
[3] = system: PC-3; test: Cytotoxicity against human PC-3 cells incubated for 48 hrs by MTT reagent based spectrophotometric analysis; type: functional, cell-based; conditions: PC-3, 48 h
[4] = system: NCI-H1299; test: Cytotoxicity against human NCI-H1299 cells incubated for 48 hrs by MTT reagent based spectrophotometric analysis; type: functional, cell-based; conditions: NCI-H1299, 48 h
[5] = Antitumor activity against human OC3-IV2 cells xenografted in CB17-Prkdcscid/CrlNarl mouse assessed as reduction in tumor size at 2 mg/kg,ip administrated once every 3 days for 2 weeks; type: functional; set-up: scale not given: the % may be the effect or the level left
[6] = system: SCC-25; test: Cytotoxicity against human SCC-25 cells incubated for 48 hrs by MTT assay; type: functional, cell-based; conditions: SCC-25, 48 h
[7] = system: SCC-25; test: Induction of apoptosis in human SCC-25 cells at 7 uM incubated for 48 hrs by annexin V-FITC/PI staining based flow cytometry relative to control; type: functional
[8] = system: A253 cell line; test: Cytotoxicity against human A253 cell line incubated for 48 hrs by MTT assay; type: functional, cell-based; conditions: A253, 48 h
[9] = system: SCC-9; test: Cytotoxicity against human SCC-9 cells incubated for 48 hrs by MTT assay; type: functional, cell-based; conditions: SCC-9, 48 h
[10] = system: SK-OV-3; test: Cytotoxicity against human SK-OV-3 cells assessed as reduction in cell viability incubated for 48 hrs by MTT reagent based spectrophotometric analysis; type: functional; conditions: SK-OV-3, 48 h
[11] = system: HepG2; test: Cytotoxicity against human HepG2 cells assessed as reduction in cell viability incubated for 48 hrs by MTT reagent based spectrophotometric analysis; type: functional; conditions: HepG2, 48 h
[12] = system: HepG2; test: Antitumor activity against human HepG2 cells xenografted in BALB/c mouse assessed as reduction in tumor growth at 10 to 20 mg/kg,iv administrated once every 3 days for 3 weeks; type: functional; set-up: scale not given: the % may be the effect or the level left; conditions: dose 10-20 mg/kg
[13] = system: HCT-116; test: Cytotoxicity against human HCT-116 cells assessed as reduction in cell viability incubated for 48 hrs by MTT reagent based spectrophotometric analysis; type: functional; conditions: HCT-116, 48 h
[14] = Antiproliferative activity against human SUM1315MO2 cells incubated for 24 hrs by CCK-8 assay; type: functional, cell-based; conditions: SUM1315MO2, 24 h
[15] = system: MCF7; test: Antiproliferative activity against human MCF7 cells incubated for 24 hrs by CCK-8 assay; type: functional, cell-based; conditions: MCF7, 24 h
[16] = system: MDA-MB-231; test: Antiproliferative activity against human MDA-MB-231 cells incubated for 24 hrs by CCK-8 assay; type: functional, cell-based; conditions: MDA-MB-231, 24 h
[17] = system: MDA-MB-453; test: Antiproliferative activity against human MDA-MB-453 cells incubated for 24 hrs by CCK-8 assay; type: functional, cell-based; conditions: MDA-MB-453, 24 h
[18] = system: MDA-MB-231; test: Antitumor activity against human MDA-MB-231 cells xenografted in mouse assessed as reduction in tumor volume; type: functional
[19] = system: A549; test: Antiproliferative activity against human A549 cells incubated for 72 hrs by MTT assay; type: functional, cell-based; conditions: A549, 72 h
[20] = system: HepG2; test: Antiproliferative activity against human HepG2 cells incubated for 72 hrs by MTT assay; type: functional, cell-based; conditions: HepG2, 72 h
[21] = Antitumor activity against mouse Lewis lung carcinoma cell line implanted in C57BL/6J mouse assessed as reduction in tumor volume at 6 mg/kg administration; type: functional; set-up: scale not given: the % may be the effect or the level left
[22] = system: HCT-116; test: Antiproliferative activity against human HCT-116 cells incubated for 72 hrs by MTT assay; type: functional, cell-based; conditions: HCT-116, 72 h
[23] = system: SW-620; test: Cytotoxicity against human SW620 cells incubated for 24 hrs by CCK-8 assay; type: functional, cell-based; conditions: SW-620, 24 h
[24] = system: SW480; test: Antitumor activity against human SW480 cells xenografted in BALB/c mouse assessed as reduction in tumor volume at 20 mg/kg,po administrated with olaparib for 15 days; type: functional; set-up: scale not given: the % may be the effect or the level left; conditions: time 15 day
[25] = system: SK-BR-3; test: Cytotoxicity against human SK-BR-3 cells incubated for 24 hrs by CCK-8 assay; type: functional, cell-based; conditions: SK-BR-3, 24 h
[26] = system: MDA-MB-231; test: Cytotoxicity against human MDA-MB-231 cells incubated for 24 hrs by CCK-8 assay; type: functional, cell-based; conditions: MDA-MB-231, 24 h
[27] = system: SW480; test: Cytotoxicity against human SW480 cells incubated for 24 hrs by CCK-8 assay; type: functional, cell-based; conditions: SW480, 24 h
[28] = system: HepG2; test: Cytotoxicity against human HepG2 cells incubated for 24 hrs by CCK-8 assay; type: functional, cell-based; conditions: HepG2, 24 h
[29] = system: MCF7; test: Cytotoxicity against human MCF7 cells incubated for 24 hrs by CCK-8 assay; type: functional, cell-based; conditions: MCF7, 24 h
[30] = system: MDA-MB-468; test: Cytotoxicity against human MDA-MB-468 cells incubated for 24 hrs by CCK-8 assay; type: functional, cell-based; conditions: MDA-MB-468, 24 h
[31] = system: NCI-H460; test: Cytotoxicity against human NCI-H460 cells incubated for 24 hrs by CCK-8 assay; type: functional, cell-based; conditions: NCI-H460, 24 h
[32] = system: NCI-H1299; test: Cytotoxicity against human NCI-H1299 cells incubated for 24 hrs by CCK-8 assay; type: functional, cell-based; conditions: NCI-H1299, 24 h
[33] = system: Huh-7; test: Cytotoxicity against human Huh-7 cells incubated for 24 hrs by CCK-8 assay; type: functional, cell-based; conditions: Huh-7, 24 h
[34] = system: A549; test: Cytotoxicity against human A549 cells incubated for 24 hrs by CCK-8 assay; type: functional, cell-based; conditions: A549, 24 h
[35] = system: HCT-116; test: Cytotoxicity against human HCT-116 cells incubated for 24 hrs by CCK-8 assay; type: functional, cell-based; conditions: HCT-116, 24 h
[36] = system: BT-549; test: Cytotoxicity against human BT-549 cells incubated for 24 hrs by CCK-8 assay; type: functional, cell-based; conditions: BT-549, 24 h
[37] = system: HepG2; test: Antiproliferative activity against human HepG2 cells assessed as inhibition of cell growth incubated upto 48 hrs by MTT assay; type: functional, cell-based; conditions: HepG2, 48 h
[38] = system: U-87 MG; test: Antitumor activity against human U87 cells xenografted in BALB/c mouse assessed as increase in survival time of animal at 1 mg/kg,ip administrated once every 3 days for 40 days; type: functional, U-87MG ATCC; conditions: time 40 day
[39] = system: C6; test: Antitumor activity against rat C6 cells implanted in Wistar rat assessed as reduction in tumor volume at 100 mg/kg,IG administration once daily for 20 days; type: functional; set-up: scale not given: the % may be the effect or the level left; conditions: time 20 day
[40] = system: C6; test: Antiproliferative activity against rat C6 cells assessed as inhibition of cell growth incubated for 48 hrs by MTS/PMS assay; type: functional, cell-based; conditions: C6, 48 h
[41] = system: DBTRG-05MG; test: Antiproliferative activity against human DBTRG-05MG cells assessed as inhibition of cell growth incubated for 72 hrs in presence of sodium orthovanadate by cell counting kit method; type: functional, cell-based
[42] = system: DBTRG-05MG; test: Antiproliferative activity against human DBTRG-05MG cells assessed as inhibition of cell growth incubated for 72 hrs by cell counting kit method; type: functional, cell-based; conditions: Homo sapiens, DBTRG-05MG, 72 h
[43] = system: AGS; test: Cytotoxicity against human AGS cells incubated for 24 hrs by MTS assay; type: functional, cell-based
[44] = system: MCF7; test: Cytotoxicity against human MCF7 cells incubated for 7 days by MTT assay; type: functional, cell-based; conditions: MCF7, 168 h
[45] = Cytotoxicity against human MCF7/LCC2 cells incubated for 7 days by MTT assay; type: functional, cell-based; conditions: MCF7/LCC2, 168 h
[46] = system: EL4; test: Antitumor activity against mouse EL4 cells implanted in C57BL/6 mouse assessed as increase in survival of animal at 2 mg/kg,ip administrated for 5 consecutive days for 3 weeks; type: functional
[47] = system: MCF7; test: Antiproliferative activity against human MCF7 cells assessed as inhibition of cell growth incubated for 48 hrs by crystal violet staining based ELISA; type: functional; conditions: MCF7, 48 h
[48] = system: HL-60; test: Cytotoxicity against human HL-60 cells assessed as reduction in cell viability incubated for 48 to 72 hrs by MTT assay; type: functional, cell-based
[49] = system: MDA-MB-231; test: Antiproliferative activity against human MDA-MB-231 cells assessed as inhibition of cell growth incubated for 48 hrs by crystal violet staining based ELISA; type: functional; conditions: MDA-MB-231, 48 h
[50] = Cytotoxicity against human MCF7/LCC9 cells incubated for 7 days by MTT assay; type: functional, cell-based; conditions: MCF7, 168 h

CC1=CC(=O)c2cccc(O)c2C1=O
IC50 [1]: 2.4 µM
IC50 [2]: 5.4 µM
IC50 [3]: 6 µM
IC50 [4]: 1.5 µM
Activity [5]: 50%

Cc1cn([C@H]2C[C@H](N=[N+]=[N-])[C@@H](COC3=C(Cl)C(=O)c4ccccc4C3=O)O2)c(=O)[nH]c1=O
IC50 [6]: 6.15 µM
Activity [7]: 30%
IC50 [8]: 5.99 µM
IC50 [9]: 8 µM

CCCNC(=O)C(Cc1ccccc1)NC1=C/C(=N/O)c2ccccc2C1=O (stereo not given)
IC50 [10]: 0.48 µM
IC50 [11]: 0.16 µM
Activity [12]: >60%
IC50 [13]: 0.18 µM

COC(=O)C(NC(=O)CCCCC1CCSC(c2ccc(OC)cc2)S1)S[C@H](CC=C(C)C)C1=CC(=O)c2c(O)ccc(O)c2C1=O (stereo not given in full)
IC50 [14]: 10.5 µM
IC50 [15]: 6.45 µM
IC50 [16]: 3.49 µM
IC50 [17]: 6.94 µM
Activity [18]: 200 mm3

CC(C)=CC[C@H](OC(=O)C1CCOCC1)C1=CC(=O)c2c(O)ccc(O)c2C1=O
IC50 [19]: 1.67 µM
IC50 [20]: 14.8 µM
Activity [21]: 63.45%
IC50 [22]: > 20 µM

CC(C)=CC[C@H](O)C1=CC(=O)c2c(O)ccc(O)c2C1=O [ALKANNIN]
IC50 [23]: 4 µM
Activity [24]: >50%
IC50 [25]: 4 µM
IC50 [26]: 4 µM
IC50 [27]: 4 µM
IC50 [28]: 4 µM
IC50 [29]: 4 µM
IC50 [30]: 4 µM
IC50 [31]: 4 µM
IC50 [32]: 4 µM
IC50 [33]: 4 µM
IC50 [34]: 4 µM
IC50 [35]: 4 µM
IC50 [36]: 4 µM

O=C1C=CC(=O)c2c(O)cccc21 [JUGLONE]
IC50 [37]: 20.4 µM
Activity [38]: 23.6%

CC(C)=CCC1=C(O)C(=O)c2ccccc2C1=O [LAPACHOL]
Activity [39]: 37%
IC50 [40]: 3.7 µM

CC1=CC(=O)c2ccccc2C1=O [MENADIONE]
IC50 [41]: 13 µM
IC50 [42]: 22 µM

O=C1C=CC(=O)c2ccccc21 [NAPHTHOQUINONE]
IC50 [43]: 2.5 µM

CC1=CC(=O)c2c(O)cccc2C1=O [PLUMBAGIN]
IC50 [44]: 1 µM
IC50 [45]: 1 µM
Activity [46]: 80%
IC50 [47]: 1.5 µM
IC50 [48]: 1.5 µM
IC50 [49]: 1.5 µM
IC50 [50]: 1 µM
